In ChEMBL document CHEMBL3832076, “Goodman and Gilman Ed. 10 | The Pharmaceutical Basis of Therapeutics| Table A-II-I: Pharmacokinetic Data” (2001):

Assays:
[1] = Pharmacokinetic parameters for different drugs following single oral or intravenous administration in healthy subjects.; conditions: human, in vivo, 100 mg
[2] = Pharmacokinetic parameters for different drugs following multiple oral or intravenous administration in healthy subjects.; type: ADME, organism-based; set-up: dose 200 mg/day, route oral; conditions: human, in vivo, dosed compound id 68, dosed compound name IMIPRAMINE HYDROCHLORIDE, regimen Repeated dose, study dosing duration 4 weeks, tissue Plasma

Structure (SMILES)	Vd ([1]; iv) [L/kg]	bioavailability ([1]; iv) [%]	dose excreted ([1]; iv) [%]	half-life ([1]; iv) [h]	Cmax ([2]; po, 200 mg/day) [ng/mL]	Tmax ([2]; dose 200 mg/day, route oral) [h]	Tmax ([1]; im) [h]	bioavailability ([1]; inhaled or intranasal) [%]	clearance ([1]; iv) [mL/min/kg]	Cmax ([1]; po, Cmax) [ng/mL]
CN(C)CCCN1c2ccccc2CCc2ccccc21.Cl [IMIPRAMINE HYDROCHLORIDE]	18	42	2	16	200	2 to 6				
NC[C@H]1O[C@H](O[C@H]2[C@H](O)[C@@H](O[C@H]3O[C@H](CO)[C@@H](O)[C@H](N)[C@H]3O)[C@H](N)C[C@@H]2N)[C@H](N)C[C@@H]1O [TOBRAMYCIN]	0.33		90	2.2			0.3	9	0.98	4600
